Measured values from the supplement of paper PMC10307832.

Key:
Test in all cases: relative viability (nuclei count vs DMSO), 5 days (fraction); higher = more cells survive
Carfilzomib + Phenformin = compound: CC(C)C[C@H](NC(=O)[C@H](CCc1ccccc1)NC(=O)CN1CCOCC1)C(=O)N[C@@H](Cc1ccccc1)C(=O)N[C@@H](CC(C)C)C(=O)[C@@]1(C)CO1 [Carfilzomib] + N=C(N)NC(=N)NCCc1ccccc1 [Phenformin] (partner 250 µM)
In short: (§1)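 For relative viability, nuclei counts in treated wells were divided by those in vehicle wells. Lung cancer cell lines had been pin-tool dosed in 1536-well plates the day after seeding and cultured for 5 days, then fixed and stained in one step (final 0.05% Triton X-100, 1% formaldehyde, 1 ug/ml Hoechst) and imaged at 4×. Doses were one drug alone or a fixed anchor-drug dose plus five library-drug doses (not always all listed) in √10 steps, and values are duplicate-plate medians.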

Crizotinib + Palbociclib = compound: C[C@@H](Oc1cc(-c2cnn(C3CCNCC3)c2)cnc1N)c1c(Cl)ccc(F)c1Cl [Crizotinib] + CC(=O)c1c(C)c2cnc(Nc3ccc(N4CCNCC4)cn3)nc2n(C2CCCC2)c1=O [Palbociclib] (partner 0.5 µM)
In short: as §1

Crizotinib + Lapatinib = compound: C[C@@H](Oc1cc(-c2cnn(C3CCNCC3)c2)cnc1N)c1c(Cl)ccc(F)c1Cl [Crizotinib] + CS(=O)(=O)CCNCc1ccc(-c2ccc3ncnc(Nc4ccc(OCc5cccc(F)c5)c(Cl)c4)c3c2)o1 [Lapatinib] (partner 2 µM)
In short: as §1

Olaparib + AZD7762 = compound: O=C(c1cc(Cc2n[nH]c(=O)c3ccccc23)ccc1F)N1CCN(C(=O)C2CC2)CC1 [Olaparib] + NC(=O)Nc1cc(-c2cccc(F)c2)sc1C(=O)N[C@H]1CCCNC1 [AZD7762] (partner 0.2 µM)
In short: as §1

Cell Line | relative viability (Carfilzomib + Phenformin; first compound 0.001 µM) | relative viability (Carfilzomib + Phenformin; first compound 0.003162 µM) | relative viability (Carfilzomib + Phenformin; first compound 0.01 µM) | relative viability (Carfilzomib + Phenformin; first compound 0.03162 µM) | relative viability (Carfilzomib + Phenformin; first compound 0.1 µM) | relative viability (Crizotinib + Palbociclib; first compound 0.01 µM) | relative viability (Crizotinib + Palbociclib; first compound 0.03162 µM) | relative viability (Crizotinib + Palbociclib; first compound 0.1 µM) | relative viability (Crizotinib + Palbociclib; first compound 0.3162 µM) | relative viability (Crizotinib + Palbociclib; first compound 1 µM) | relative viability (Crizotinib + Lapatinib; first compound 0.01 µM) | relative viability (Crizotinib + Lapatinib; first compound 0.03162 µM) | relative viability (Crizotinib + Lapatinib; first compound 0.1 µM) | relative viability (Crizotinib + Lapatinib; first compound 0.3162 µM) | relative viability (Crizotinib + Lapatinib; first compound 1 µM) | relative viability (Olaparib + AZD7762; first compound 0.08 µM) | relative viability (Olaparib + AZD7762; first compound 0.253 µM) | relative viability (Olaparib + AZD7762; first compound 2.53 µM) | relative viability (Olaparib + AZD7762; first compound 8 µM)
LOU-NH91 | 0.724 | 0.806 | 0.543 | 0.215 | 0.221 | 0.583 | 0.534 | 0.516 | 0.533 | 0.5 | 0.738 | 0.731 | 0.677 | 0.57 | 0.712 | 0.838 | 0.739 | 0.789 | 0.761
NCI-H1755 | 0.623 | 0.664 | 0.66 | 0.592 | 0.238 | 0.465 | 0.445 | 0.445 | 0.457 | 0.451 | 1 | 1.04 | 1.07 | 0.938 | 1.03 | 0.452 | 0.451 | 0.489 | 0.399
NCI-H647 | 0.485 | 0.667 | 0.237 | 0.0272 | 0.0185 | 0.358 | 0.421 | 0.368 | 0.404 | 0.526 | – | 1.1 | 1.23 | 0.792 | 1.07 | 0.508 | 0.379 | 0.343 | 0.156
A549 | 0.0885 | 0.231 | 0.113 | 0.0362 | 0.0257 | – | – | – | – | – | 0.996 | 1.06 | 1.03 | – | 1.05 | – | – | – | –
LCLC-103H | 0.328 | 0.327 | 0.297 | 0.285 | 0.17 | 0.469 | 0.435 | 0.438 | 0.471 | 0.508 | – | – | – | – | – | 0.916 | 0.773 | 0.727 | 0.56
NCI-H1437 | 0.306 | 0.346 | 0.301 | 0.249 | 0.123 | 0.283 | 0.328 | 0.302 | 0.309 | 0.356 | 0.768 | 0.839 | 0.816 | 0.711 | 0.928 | 1.19 | 1.11 | 1.15 | 0.997
NCI-H2170 | 0.423 | 0.457 | 0.427 | 0.411 | 0.232 | 0.38 | 0.435 | 0.362 | 0.384 | 0.381 | 0.274 | 0.283 | 0.261 | 0.243 | 0.241 | 0.718 | 0.857 | 0.627 | 0.398
HCC-15 | 0.443 | 0.538 | 0.48 | 0.222 | 0.1 | 0.665 | 0.719 | 0.7 | 0.655 | 0.627 | 0.831 | 0.881 | 0.886 | 0.549 | 0.836 | 1.24 | 1.11 | 1.23 | 1.08
NCI-H1648 | – | – | – | – | – | – | 0.262 | 0.264 | 0.275 | 0.318 | – | – | – | – | – | 0.831 | 0.75 | – | 0.544
NCI-H661 | 0.268 | 0.272 | 0.272 | 0.248 | 0.215 | 0.376 | 0.425 | 0.44 | 0.435 | 0.423 | 0.551 | 0.461 | 0.43 | 0.469 | 0.539 | – | – | – | –
NCI-H650 | – | 0.536 | 0.451 | 0.345 | 0.148 | 0.346 | 0.32 | 0.352 | – | 0.375 | 0.833 | 0.788 | 0.909 | 0.803 | 0.891 | 1.05 | 0.956 | 0.826 | 0.927
RERF-LC-KJ | 0.44 | 0.421 | 0.419 | 0.354 | 0.236 | 0.98 | 1.12 | 0.925 | 0.991 | 1.06 | 0.801 | 0.881 | 0.853 | – | 0.838 | 1.11 | 0.825 | 0.883 | 1.08
SK-LU-1 | 0.458 | 0.529 | 0.48 | 0.0958 | 0.114 | 0.391 | 0.359 | 0.38 | 0.361 | 0.436 | 0.833 | 0.953 | 0.859 | 0.889 | – | – | – | – | –
NCI-H1792 | 0.188 | 0.357 | 0.262 | 0.234 | 0.0821 | 0.588 | 0.692 | 0.639 | – | 0.68 | 0.827 | 0.918 | 0.958 | 0.78 | 0.842 | 0.774 | 0.559 | 0.496 | 0.254
NCI-H1666 | 0.594 | 0.569 | 0.528 | 0.428 | 0.278 | 0.678 | 0.685 | 0.712 | 0.625 | 0.623 | 0.618 | 0.678 | 0.587 | 0.657 | 0.682 | 0.892 | 0.725 | 0.781 | 0.835
SK-MES-1 | 0.655 | 0.745 | 0.635 | 0.551 | 0.146 | 0.295 | 0.318 | 0.341 | 0.312 | 0.302 | 0.415 | 0.414 | 0.51 | 0.43 | 0.541 | – | – | – | –
NCI-H1915 | 0.367 | 0.403 | 0.359 | 0.255 | 0.0555 | 0.517 | 0.525 | 0.488 | 0.51 | 0.476 | 0.902 | 0.95 | 1.01 | – | 0.969 | 0.544 | 0.561 | 0.404 | 0.245
SW 1573 | 0.341 | 0.43 | 0.251 | 0.0664 | 0.0618 | 0.373 | 0.368 | 0.39 | 0.417 | 0.411 | 1.13 | 1.03 | 0.956 | 1.07 | 1.08 | – | – | – | –
NCI-H2087 | 0.471 | 0.445 | 0.13 | 0.0358 | 0.0687 | 0.178 | 0.244 | 0.213 | 0.229 | 0.23 | 0.936 | 1.07 | 0.915 | 0.557 | 1.06 | 1.43 | 1.15 | 1.3 | 0.959
